Experimental data taken from PubChem BioAssay (NCI).
“And” between values parts separate entries of the source, which are not always exact repeats. Identical values can stand only once.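 Compound exposure: 48 hours, 5 concentrations, 96-well plates. At the GI50, growth is halved. At the TGI there is no net growth.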

Columns and labels:
Test in all cases: NCI tumour cell line growth inhibition, 48 h
SK-MEL-2 melanoma = tested on: SK-MEL-2 melanoma
SF-295 CNS = tested on: SF-295 CNS
OVCAR-3 ovarian = tested on: OVCAR-3 ovarian
MOLT-4 leukemia = tested on: MOLT-4 leukemia
ACHN renal = tested on: ACHN renal
UO-31 renal = tested on: UO-31 renal
LOX IMVI melanoma = tested on: LOX IMVI melanoma
NCI-H226 lung = tested on: NCI-H226 lung
CAKI-1 renal = tested on: CAKI-1 renal
T-47D breast = tested on: T-47D breast

Structure (SMILES)	TGI (SK-MEL-2 melanoma)	TGI (SF-295 CNS)	TGI (OVCAR-3 ovarian)	TGI (MOLT-4 leukemia)	TGI (ACHN renal)	TGI (UO-31 renal)	TGI (LOX IMVI melanoma)	TGI (NCI-H226 lung)	TGI (CAKI-1 renal)	GI50 (SK-MEL-2 melanoma)	GI50 (ACHN renal)	GI50 (UO-31 renal)	GI50 (LOX IMVI melanoma)	GI50 (NCI-H226 lung)	GI50 (CAKI-1 renal)	GI50 (SF-295 CNS)	GI50 (OVCAR-3 ovarian)	GI50 (T-47D breast)	TGI (T-47D breast)	GI50 (MOLT-4 leukemia)
O=C(CC1=Nc2nnc(-c3nnc4n3C(=O)C(CC(=O)C3CC3)=N4)n2C1=O)C1CC1	> 100 µM	> 100 µM	> 100 µM	> 100 µM	> 100 µM	> 100 µM	> 100 µM	> 100 µM	> 100 µM	–	–	–	–	–	–	–	–	–	–	–
CC1CC(C)C(C(O)CC2CC(=O)N(c3ccccc3)C(=O)C2)C(O)C1 (stereo not given)	–	> 100 µM	> 100 µM	> 100 µM	> 100 µM	> 100 µM	> 100 µM	> 100 µM	> 100 µM	–	–	–	–	–	–	–	–	–	–	–
NC(N)=N/N=C/c1c(-c2ccc(Cl)c([N+](=O)[O-])c2)nc2sc3ccccc3n12	> 50 µM	–	–	–	1.56 µM	> 50 µM	0.17 µM	11.1 µM	8.49 µM	26.8 µM	862 nM	23.6 µM	92.3 nM	1790 nM	1660 nM	–	–	–	–	–
COC(=O)c1sc(=NC(=S)N2CCCCC2)sc1C(=O)OC	> 100 µM	–	34.2 µM	> 100 µM	> 100 µM	> 100 µM	–	> 100 µM	> 100 µM	–	–	–	–	–	–	–	–	–	–	–
N#CC(NC(=O)CCl)=C(Cl)Cl	5.24 µM	8.01 µM	2.46 µM	–	2.51 µM	2.56 µM	3.1 µM	6.56 µM	3.14 µM	2.16 µM	1220 nM	1.25 µM	1570 nM	2590 nM	1690 nM	2.74 µM	1130 nM	–	–	–
O=C(N/N=C/c1ccc(F)cc1)c1ccc(C(F)(F)F)nc1Nc1cccc(C(F)(F)F)c1	–	2.69 µM	0.713 µM	5.5 µM	4.04 µM	6.69 µM	2.17 µM	4.17 µM	2.32 µM	–	1660 nM	2.14 µM	522 nM	1260 nM	340 nM	0.744 µM	254 nM	1020 nM	4.39 µM	1.57 µM
Nc1ccc(C(=O)/C=C/c2ccccc2O)cc1	> 100 µM	> 100 µM	> 100 µM	> 100 µM	> 100 µM	> 100 µM	> 100 µM	> 100 µM	> 100 µM	–	–	–	–	–	–	–	–	–	–	–
CN(C)c1ccc(O[Si](Oc2ccc(N(C)C)cc2)(Oc2ccc(N(C)C)cc2)Oc2ccc(N(C)C)cc2)cc1	–	> 100 µM	> 100 µM	> 100 µM	> 100 µM	> 100 µM	> 100 µM	> 100 µM	> 100 µM	–	–	–	–	–	–	–	–	–	–	–
CN(C)c1ccc(N=C2C=CC(=C(C#N)C#N)c3ccccc32)cc1	6.7 µM	14.9 µM	1.46 µM	8.04 µM	10.6 µM	14.2 µM	3.49 µM	0.741 µM	12.7 µM	–	–	–	–	–	–	–	–	–	–	–
N#CCC1(n2cc(-c3ncnc4[nH]ccc34)cn2)CN(C2CCN(C(=O)c3ccnc(C(F)(F)F)c3F)CC2)C1	> 100 µM	> 100 µM	> 100 µM	> 100 µM	> 100 µM	> 100 µM	> 100 µM	> 100 µM	–	> 100 µM	> 100000 nM	49.2 µM	96800 nM	19300 nM	–	53.9 µM	> 100000 nM	51700 nM	> 100 µM	49.9 µM
CCOc1ccccc1NC(=O)C1=C(C)NC(C)=C(C(=O)Nc2ccccc2OCC)C1c1ccc([N+](=O)[O-])cc1	> 100 µM	> 100 µM	> 100 µM	–	> 100 µM	> 100 µM	–	> 100 µM	> 100 µM	–	–	–	–	–	–	–	–	–	–	–
O=C(Oc1ccc2c(c1)CN(Cc1ccccc1)CO2)c1ccccc1	50.5 µM	38.4 µM	29.7 µM	54.1 µM	32.9 µM	31.8 µM	37.1 µM	–	37.8 µM	–	–	–	–	–	–	–	–	–	70 µM	–
Nc1nc(=S)[nH]c(C(=O)Nc2nccs2)c1-c1ccccc1	> 100 µM	> 100 µM	> 100 µM	> 100 µM	> 100 µM	> 100 µM	> 100 µM	> 100 µM	> 100 µM	–	–	–	–	–	–	–	–	–	–	–
c1ccc2c3c([nH]c2c1)C1C2CCCCN2C(c2ccncc2)N1CC3 (stereo not given)	> 100 µM	> 100 µM	> 100 µM	> 100 µM	> 100 µM	34.8 µM	> 100 µM	–	> 100 µM	–	–	–	–	–	–	–	–	–	–	–
COc1cc(CCc2ccc(OC(C)=O)cc2)cc(OC)c1OC	–	> 100 µM	> 100 µM	> 100 µM	> 100 µM	> 100 µM	> 100 µM	> 100 µM	> 100 µM	–	–	–	–	–	–	–	–	–	–	–
O=C(OC[C@@H]1CO1)c1cccc2c(=O)c3ccccc3[nH]c12	0.595 µM	2.5 µM	1.14 µM	–	0.305 µM	–	0.48 µM	1.48 µM	0.687 µM	0.251 µM	107 nM	–	80.7 nM	301 nM	200 nM	0.432 µM	276 nM	890 nM	5.55 µM	0.0531 µM
CC(=O)OCC1OC(n2c(=S)n(-c3ccccc3)c(=O)c3cc(Br)cc(Br)c32)C(OC(C)=O)C(OC(C)=O)C1OC(C)=O (stereo not given)	> 100 µM	71.4 µM and > 100 µM	> 100 µM	> 100 µM	> 100 µM	> 100 µM	> 100 µM	> 100 µM	> 100 µM	–	–	> 100 µM and 42.9 µM	–	–	–	11.7 µM and 60.3 µM	47400 nM and > 100000 nM	–	–	36.8 µM
Nc1ncc(C2[C@H](CNC(=O)c3cc(Br)c[nH]3)C(CNC(=O)c3cc(Br)c[nH]3)[C@@H]2c2cnc(N)[nH]2)[nH]1 (stereo not given in full)	> 50 µM	> 50 µM	> 50 µM	> 50 µM	> 50 µM	> 50 µM	> 50 µM	> 50 µM	> 50 µM	> 50 µM	> 50000 nM	> 50 µM	> 50000 nM	> 50000 nM	> 50000 nM	> 50 µM	> 50000 nM	–	–	48.4 µM
NNC(=O)N/N=C1\CN(c2ccc(Cl)cc2Cl)C(=O)C(=O)C1c1nc2ccccc2o1 (stereo not given)	> 100 µM	–	> 100 µM	> 100 µM	> 100 µM	> 100 µM	–	> 100 µM	> 100 µM	–	–	–	–	–	–	–	–	–	–	–
